Test results published in paper PMC10892836, “Hybrid Molecules of Azithromycin with Chloramphenicol and Metronidazole: Synthesis and Study of Antibacterial Properties” (Pharmaceuticals, 2024).
Converted amounts (≈) assume the structure as drawn. “And” between values parts separate entries of the source, which are not always exact repeats. Identical values can stand only once.

Experiments:
[1] = system: E. coli ΔtolC pErmCL-ErmC; assay: MIC, broth microdilution, E. coli ΔtolC panel; assay type: cell-based; conditions: for MIC: Escherichia coli
Description: In order to create the construct pErmCL-ErmC, the vector backbone was amplified using pZa-fwd (5′-TAAGAATTCTCTAGCCCG-3′) and pZa-rev (5′-[…]-3′) primers, and the pERMZα plasmid as a template. The ermC gene was amplified from the pERMCTP plasmid with ErmC-fwd (5′-[…]-3′) and ErmC-rev (5′-TAGGCGGGCTAGAGAATTC-3′) primers. The joining of two DNA fragments was performed using the NEBuilder® HiFi DNA Assembly Master Mix (New England Biolabs, Ipswich, MA, USA). Sequences of intermediate products and the final construct were confirmed by Sanger sequencing with appropriate primers.
(§1) The E. coli ΔtolC strain was also transformed with the pErmC, pErmCL-ErmC, and pERMZα plasmids. The resulting strains were grown at 37 °C in LB medium supplied with 100 μg/mL ampicillin.
(§2) MIC values for a panel of E. coli ΔtolC strains were determined via the broth microdilution assay as described here with minor modifications. Briefly, the overnight E. coli culture was diluted to an OD600 of 0.01 in the fresh LB medium supplied with 100 μg/mL ampicillin, if required. Then, the cells were additionally incubated for 1–1.5 h at 37 °C with shaking at 200 rpm (Shaker-Incubator ES-20/80, BioSan, Riga, Latvia). Meanwhile, 100 μL of the liquid growth medium was placed in each well of a 96-well sterile plate (200 μL was placed in column 1). Solutions of tested compounds were added in the first column of the plate at 2 times the final concentration of 200 μg/mL. Then, 2-fold serial dilutions were performed. Immediately before use, bacterial inoculum was diluted (1:100) in the growth medium, and 100 μL of it was transferred in each well except for the sterility control column. The plate was incubated overnight (16–20 h) at 37 °C with constant shaking at 200 rpm (Shaker-Incubator ES-20/80, BioSan, Riga Latvia). Cell growth was assessed by scanning the OD600 with a VICTOR X5 Multilabel Plate Reader (PerkinElmer, Waltham, MA, USA).
(§3) Minimum inhibitory concentration (MIC) was defined as the lowest concentration of a chemical compound that inhibits the visible growth of the bacterial strain. At least three replicates of MIC measurements were performed.

E. coli ΔtolC = assay: MIC, broth microdilution, E. coli ΔtolC panel; assay type: cell-based; conditions: for MIC: Escherichia coli
Source text: The E. coli JW5503 strain with a deletion of the tolC gene (referred to here as E. coli ΔtolC) was kindly provided by Prof. Hironori Niki, National Institute of Genetics, Japan. The E. coli BW25113 strain with a partial deletion of the lptD gene, codons 330 to 352 (referred to here as E. coli lptD^mut) was kindly provided by Prof. Alexander S. Mankin, University of Illinois, Chicago, IL, USA [44]. The E. coli ΔtolC strain was transformed with the pDualrep2 (Amp^R) plasmid, whereas the E. coli lptD^mut strain was transformed with the pDualrep2 (Kan^R) plasmid (not yet published). Both E. coli strains were grown at 37 °C in Luria–Bertani (LB) medium supplemented with either 100 μg/mL ampicillin or 50 μg/mL kanamycin.
as §2, §3

[2] = system: cell-free bacterial translation system based on the E. coli S30 lysate; assay: In vitro translation in a cell-free bacterial system (firefly luciferase synthesis); assay type: biochemical; conditions: final concentration 5 μM; water control = 100%
Description: The inhibition of firefly luciferase (Fluc) synthesis by new azithromycin derivatives was assessed with the E. coli S30 Extract System for Linear Templates (Promega, Madison, WI, USA). Each reaction (5 μL total volume) was supplied with 0.1 mM mixture of all canonical amino acids, 4 U of RiboLock RNase Inhibitor (Thermo Fisher Scientific, Waltham, MA, USA), 0.1 mM of D-luciferin (Sigma-Aldrich, Burlington, MA, USA), 50 ng of firefly luciferase (Fluc) mRNA, and a chemical compound at a final concentration, as indicated in the main text, or nuclease-free water instead. Before the addition of mRNA, reaction tubes were pre-incubated at RT for 5 min and then placed back on ice. After the addition of mRNA, reaction mixtures were immediately subjected to continuous chemiluminescence measurement using the VICTOR X5 Multilabel Plate Reader (PerkinElmer, Waltham, MA, USA) at 37 °C for 30 min. Maximal rates of the firefly luciferase (Fluc) accumulation were calculated using the OriginPro 7.5 software. The values were normalized to a positive control (nuclease-free water, assigned a value of 100%). The results were visualized using the QtiPlot software (version 0.9.8.9).

[3] = system: ribosome stalling on ermCL mRNA; assay: Toe-printing (primer extension inhibition) analysis on ermCL mRNA; assay type: biochemical; conditions: 50 μM (chloramphenicol 30 μM)
Description: The toe-printing (primer extension inhibition) analysis of azithromycin derivatives was carried out essentially as previously described with some minor modifications, as indicated below. The DNA template ErmCL was generated by PCR using two overlapping primers, ErmCL-fwd (5′-[…]-3′) and ErmCL-rev (5′-[…]-3′). Before the addition of the DNA template to reaction mixtures at the in vitro translation step, tubes were pre-incubated at RT for 5 min. Moreover, phenol-chloroform extraction of reverse transcription products was replaced with DNA purification using the QIAquick® PCR Purification Kit (Qiagen, Hilden, Germany) according to the manufacturer’s protocol.
Figure 4 Toe-printing (or primer extension inhibition) analysis of azithromycin derivatives on ermCL mRNA. Ribosome stalling is detected via reverse transcription in a cell-free bacterial transcription–translation coupled system. The toe-printing bands are marked with colored arrowheads, and the A-site codons (except for the start codon, P-site codon is indicated) occupied by the stalled ribosomes are indicated in the mRNA sequence with the corresponding colors. The stop codon is marked with an asterisk. All compounds but chloramphenicol (CLM) were tested at 50 μM. Chloramphenicol (CLM) was tested at 30 μM. DMSO was used as a negative control at 0.25% final concentration. Thiostrepton (THS) was used to indicate the translation start site.

E. coli ΔtolC pErmC = assay: MIC, broth microdilution, E. coli ΔtolC panel; assay type: cell-based; conditions: Escherichia coli
Description: as §1, §2, §3

E. coli ΔtolC pERMZα = assay: MIC, broth microdilution, E. coli ΔtolC panel; assay type: cell-based; conditions: Escherichia coli
Description: as §1, §2, §3

[4] = system: Staphylococcus aureus ATCC 29213; assay: MIC, broth microdilution (CLSI); assay type: cell-based; conditions: ATCC29213, S. aureus ATCC 29213
Description: (§4) Minimum inhibitory concentration (MIC) values for facultative anaerobic bacteria were determined using the broth microdilution method outlined in the CLSI guidelines. Initially, all compounds were dissolved in dimethyl sulfoxide (DMSO) to achieve a concentration of 10 mg/mL. Subsequently, they were diluted with the Mueller–Hinton nutrient broth (MHB) supplemented with 5% defibrinated horse blood (for Streptococcus spp.) to a concentration of 64 μg/mL. Following 2-fold serial dilutions of the substances, bacterial cultures in the log growth phase were added to 96-well plates at a concentration of 2.5–5 × 10^5 CFU/mL, and the plates were incubated at 37 °C for 16–20 h.
as §3

[5] = system: Streptococcus pneumoniae ATCC 49619; assay: MIC, broth microdilution (CLSI); assay type: cell-based; conditions: ATCC49619, S. pneumoniae ATCC 49619, Tables 2 and 3
Description: as §4, §3

[6] = system: Escherichia coli ATCC 25922; assay: MIC, broth microdilution (CLSI); assay type: cell-based; conditions: ATCC25922, E. coli ATCC 25922
Description: as §4, §3

70S E. coli ribosomes = assay: Competition-binding assay with BODIPY-ERY (fluorescence anisotropy); conditions: displacement of BODIPY-ERY; means, 95% confidence intervals; read-out: Apparent dissociation constant KD
Description: Affinity of compounds to the 70S E. coli ribosomes (isolated from the E. coli MRE600 strain according to a published procedure) was evaluated with a competition-binding assay using fluorescently labeled erythromycin (BODIPY-ERY) as described earlier. Briefly, BODIPY-ERY (16 nM) was mixed with ribosomes (34 nM) in 384-well plates in the buffer containing 20 mM HEPES-KOH (pH 7.5), 50 mM NH4Cl, 10 mM Mg(CH3CO2)2, 4 mM β-mercaptoethanol, and 0.05% (v/v) Tween-20. Solutions of the tested compounds were added to the obtained complexes to final concentrations from 1 to 1000 nM and incubated for 2 h at 30 °C. The values of fluorescence anisotropy were obtained using the VICTOR X5 Multilabel Plate Reader (PerkinElmer, Waltham, MA, USA). Filters of 485 and 535 nm were used for excitation and emission, respectively. To calculate the apparent dissociation constants, the assumption that the competitive equilibrium binding of two ligands occurs at a single binding site was used. For each compound, at least 2 replicates were performed. Values of apparent dissociation constants are given as means with 95% confidence intervals. The results were visualized using the GraphPad Prism software (version 8.0.1).

| Structure (SMILES) | Fold increase in the MIC value on E. coli ΔtolC pErmCL-ErmC compared to E. coli ΔtolC [1] | MIC [1] [µg/mL] | MIC (E. coli ΔtolC) [µg/mL] | Relative luciferase activity (relative maximal rate of Fluc accumulation) [2] [%] | Ribosome stalling pattern on ermCL mRNA [3] | MIC (E. coli ΔtolC pErmC) [µg/mL] | MIC (E. coli ΔtolC pERMZα) [µg/mL] | MIC [4] [µg/mL] | MIC [5] [µg/mL] | MIC [6] [µg/mL] | Times weaker than the parental antibiotic (azithromycin), MIC (E. coli ΔtolC; toward E. coli strains (Table 4)) | Kd (70S E. coli ribosomes) |
| --- | --- | --- | --- | --- | --- | --- | --- | --- | --- | --- | --- | --- |
| O=C(N[C@H](CO)[C@H](O)c1ccc([N+](=O)[O-])cc1)C(Cl)Cl [CLM, Chloramphenicol] | no changes in the MIC values | 1.6 (≈ 4.95 µM) | 1.6 (≈ 4.95 µM) | 21 | strong ribosome stalling when the Ser codon (AGU) occupies the E-site of the ribosome | 1.6 (≈ 4.95 µM) | 1.6 (≈ 4.95 µM) | 8 (≈ 24.8 µM) | 4 (≈ 12.4 µM) | 8 (≈ 24.8 µM) |  |  |
| CC[C@H]1OC(=O)[C@H](C)[C@@H](O[C@H]2C[C@@](C)(OC)[C@@H](OC(=O)NCCN)[C@H](C)O2)[C@H](C)[C@@H](O[C@@H]2O[C@H](C)C[C@H](N(C)C)[C@H]2OC(C)=O)[C@](C)(O)C[C@@H](C)CN(C)[C@H](C)[C@H]2OC(=O)O[C@@]21C [compound 6, 2′-O-Acetyl-4′′-O-((2-aminoethyl)carbamoyl)-11,12-cyclic carbonate of azithromycin] |  | 6.3 (≈ 6.98 µM) | 3.1 (≈ 3.43 µM) | 46 | premature ribosome stalling at the first Phe codon (UUU) | > 200 | 3.1 (≈ 3.43 µM) | 32 (≈ 35.4 µM) | > 32 | > 32 | 2–4 times | 6.5 nM and 6 nM |
| CC[C@H]1OC(=O)[C@H](C)[C@@H](O[C@H]2C[C@@](C)(OC)[C@@H](O)[C@H](C)O2)[C@H](C)[C@@H](O[C@@H]2O[C@H](C)C[C@H](N(C)C)[C@H]2O)[C@](C)(O)C[C@@H](C)C(=O)[C@H](C)[C@@H](O)[C@]1(C)O [ERY, erythromycin] | 16 fold | 50 (≈ 68.1 µM) | 3.1 (≈ 4.22 µM) | 0.9 |  | > 200 | 1.6 (≈ 2.18 µM) |  |  |  |  |  |
